From ChEMBL document CHEMBL4387778, “Dual functional cholinesterase and PDE4D inhibitors for the treatment of Alzheimer's disease: Design, synthesis and evaluation of tacrine-pyrazolo[3,4-b]pyridine hybrids” (Bioorg Med Chem Lett, 2019)
pIC50: −log10 of the molar value.

Experiments:
Cholinesterase = Cholinesterase (Equus caballus, UniProt P81908); assay: Inhibition of equine serum BuchE using butyrylthiocholine as substrate by Ellman's method
[1] = target: 3',5'-cyclic-AMP phosphodiesterase 4D (Homo sapiens, UniProt Q08499)
Sequence of 3',5'-cyclic-AMP phosphodiesterase 4D (Q08499 whole entry): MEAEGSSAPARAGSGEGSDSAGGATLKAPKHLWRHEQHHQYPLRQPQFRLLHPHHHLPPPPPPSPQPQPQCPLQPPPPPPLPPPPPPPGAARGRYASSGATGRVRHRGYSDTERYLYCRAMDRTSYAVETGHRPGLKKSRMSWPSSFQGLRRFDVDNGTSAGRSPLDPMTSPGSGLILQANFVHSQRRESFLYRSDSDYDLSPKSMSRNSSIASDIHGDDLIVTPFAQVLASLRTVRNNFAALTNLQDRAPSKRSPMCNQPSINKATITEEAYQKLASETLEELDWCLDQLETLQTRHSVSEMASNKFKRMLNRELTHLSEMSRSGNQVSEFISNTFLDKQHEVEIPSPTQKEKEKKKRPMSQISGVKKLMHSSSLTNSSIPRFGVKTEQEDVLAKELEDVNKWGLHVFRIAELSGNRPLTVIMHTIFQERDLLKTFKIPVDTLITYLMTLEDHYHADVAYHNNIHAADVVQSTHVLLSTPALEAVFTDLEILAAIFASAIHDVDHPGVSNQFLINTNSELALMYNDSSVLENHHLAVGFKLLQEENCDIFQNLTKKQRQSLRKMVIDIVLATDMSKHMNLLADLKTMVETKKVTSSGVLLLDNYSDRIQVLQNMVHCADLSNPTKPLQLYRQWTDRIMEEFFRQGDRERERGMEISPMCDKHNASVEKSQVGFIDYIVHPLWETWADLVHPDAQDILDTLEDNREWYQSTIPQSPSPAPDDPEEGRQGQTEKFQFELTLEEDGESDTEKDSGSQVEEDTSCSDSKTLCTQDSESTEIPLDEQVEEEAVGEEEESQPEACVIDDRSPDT
Description: Inhibition of recombinant human PDE4D2 catalytic domain (86 to 413 residues) expressed in Escherichia coli BL21 codonplus cells using [3H]cAMP as substrate preincubated for 15 mins followed by substrate addition by liquid scintillation counting method

Acetylcholinesterase = Acetylcholinesterase (Electrophorus electricus, UniProt O42275); assay: Inhibition of electric eel AchE using acetylthiocholine as substrate by Ellman's method
Sequence of Acetylcholinesterase (O42275 whole entry): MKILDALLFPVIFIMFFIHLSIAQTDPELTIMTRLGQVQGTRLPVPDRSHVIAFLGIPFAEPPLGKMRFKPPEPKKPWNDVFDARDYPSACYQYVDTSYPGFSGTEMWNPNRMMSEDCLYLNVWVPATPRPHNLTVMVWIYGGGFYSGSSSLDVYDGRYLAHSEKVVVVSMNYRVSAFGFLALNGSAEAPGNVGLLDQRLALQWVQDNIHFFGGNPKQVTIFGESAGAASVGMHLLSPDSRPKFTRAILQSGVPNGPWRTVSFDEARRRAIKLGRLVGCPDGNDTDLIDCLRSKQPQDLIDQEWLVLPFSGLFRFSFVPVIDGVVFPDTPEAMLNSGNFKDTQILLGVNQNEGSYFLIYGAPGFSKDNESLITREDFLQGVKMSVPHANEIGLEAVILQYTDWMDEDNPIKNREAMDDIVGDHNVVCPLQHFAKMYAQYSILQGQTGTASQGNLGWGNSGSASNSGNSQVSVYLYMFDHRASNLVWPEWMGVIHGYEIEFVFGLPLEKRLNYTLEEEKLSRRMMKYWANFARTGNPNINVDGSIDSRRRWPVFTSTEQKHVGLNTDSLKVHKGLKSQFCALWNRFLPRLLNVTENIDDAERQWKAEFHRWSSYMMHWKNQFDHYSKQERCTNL

Sequence of Cholinesterase (P81908 whole entry): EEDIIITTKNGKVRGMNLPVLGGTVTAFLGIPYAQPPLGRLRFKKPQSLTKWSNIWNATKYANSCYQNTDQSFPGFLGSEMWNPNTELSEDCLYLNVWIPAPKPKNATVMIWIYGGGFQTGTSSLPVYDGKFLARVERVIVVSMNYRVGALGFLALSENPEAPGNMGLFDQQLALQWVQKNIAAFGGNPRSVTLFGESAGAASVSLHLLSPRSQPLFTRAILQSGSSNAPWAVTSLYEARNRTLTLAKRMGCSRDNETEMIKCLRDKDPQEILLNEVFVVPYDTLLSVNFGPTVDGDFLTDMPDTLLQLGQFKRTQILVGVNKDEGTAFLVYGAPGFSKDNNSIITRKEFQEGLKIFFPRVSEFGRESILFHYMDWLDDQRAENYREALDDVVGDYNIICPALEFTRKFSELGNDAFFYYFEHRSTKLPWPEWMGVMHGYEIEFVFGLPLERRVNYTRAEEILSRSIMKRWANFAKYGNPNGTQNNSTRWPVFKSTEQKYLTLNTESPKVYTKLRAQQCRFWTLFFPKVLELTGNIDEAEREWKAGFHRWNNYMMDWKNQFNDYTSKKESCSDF

## CCn1ncc2c(NC3CCCCC3)c(C(=O)NCCCCCCCCNc3c4c(nc5cc(Cl)ccc35)CCCC4)cnc21
Cholinesterase
  pIC50: 6.50
[1]
  pIC50: 5.97
Acetylcholinesterase
  pIC50: 6.09

## CCn1ncc2c(NC3CCCCC3)c(C(=O)NCCCCCCCCNc3c4c(nc5ccccc35)CCCC4)cnc21
Cholinesterase
  pIC50: 6.49
[1]
  pIC50: 5.88
Acetylcholinesterase
  pIC50: 6.41

## CCn1ncc2c(NC3CCCCC3)c(C(=O)NCCCCNc3c4c(nc5cc(Cl)ccc35)CCCC4)cnc21
Cholinesterase
  pIC50: 5.89
[1]
  pIC50: 7.06
Acetylcholinesterase
  pIC50: 6.47

## CCn1ncc2c(NC3CCCCC3)c(C(=O)NCCCCNc3c4c(nc5ccccc35)CCCC4)cnc21
Cholinesterase
  pIC50: 6.05
[1]
  pIC50: 6.97
Acetylcholinesterase
  pIC50: 6.48

## CCn1ncc2c(NC3CCCCC3)c(C(=O)NCCCCCCCNc3c4c(nc5ccc(Cl)cc35)CCCC4)cnc21
Cholinesterase
  pIC50: 6.61
[1]
  pIC50: 6.03
Acetylcholinesterase
  pIC50: 6.41

## CCn1ncc2c(NC3CCCCC3)c(C(=O)NCCNc3c4c(nc5ccccc35)CCCC4)cnc21
Cholinesterase
  pIC50: 6.05
[1]
  pIC50: 7.39
Acetylcholinesterase
  pIC50: 6.61

## CCn1ncc2c(NC3CCCCC3)c(C(=O)NCCCCCCCNc3c4c(nc5ccccc35)CCCC4)cnc21
Cholinesterase
  pIC50: 6.49
[1]
  pIC50: 5.97
Acetylcholinesterase
  pIC50: 6.50

## CCn1ncc2c(NC3CCCCC3)c(C(=O)NCCCCCCNc3c4c(nc5cc(Cl)ccc35)CCCC4)cnc21
Cholinesterase
  pIC50: 6.35
[1]
  pIC50: 6.57
Acetylcholinesterase
  pIC50: 6.90

## CCn1ncc2c(NC3CCCCC3)c(C(=O)NCCCCCNc3c4c(nc5ccccc35)CCCC4)cnc21
Cholinesterase
  pIC50: 6.58
[1]
  pIC50: 6.32
Acetylcholinesterase
  pIC50: 6.45

## CCn1ncc2c(NC3CCCCC3)c(C(=O)NCCNc3c4c(nc5cc(Cl)ccc35)CCCC4)cnc21
Cholinesterase
  pIC50: 6.15
[1]
  pIC50: 7.60
Acetylcholinesterase
  pIC50: 6.39

## CCn1ncc2c(NC3CCCCC3)c(C(=O)NCCCCCCNc3c4c(nc5ccccc35)CCCC4)cnc21
Cholinesterase
  pIC50: 6.48
[1]
  pIC50: 6.30
Acetylcholinesterase
  pIC50: 6.83

## CCn1ncc2c(NC3CCCCC3)c(C(=O)NCCCCCNc3c4c(nc5ccc(Cl)cc35)CCCC4)cnc21
Cholinesterase
  pIC50: 6.36
[1]
  pIC50: 6.51
Acetylcholinesterase
  pIC50: 6.51
